Test results: PMC7642786, “Experimental phasing with vanadium and application to nucleotide-binding membrane proteins” (IUCrJ, 2020)

Molecular target: T1, McjD (antibacterial peptide ATP-binding cassette transporter) (Escherichia coli, UniProt Q9X2W0)
T1 construct: full-length, detergent (dodecyl maltopyranoside) purified, ~66 kDa, 580 residues per vanadium, homodimer; prepared as described previously
Experiment: X-ray crystallography (V-SAD, […] Å, phased anomalous difference maps)
Settings: complex formed with 2 mM ATP, 2 mM sodium orthovanadate, 5 mM MgCl2, pH 7.8; post-hydrolysis ADP-VO4 state; one site per monomer

T1 sequence (Q9X2W0 whole entry): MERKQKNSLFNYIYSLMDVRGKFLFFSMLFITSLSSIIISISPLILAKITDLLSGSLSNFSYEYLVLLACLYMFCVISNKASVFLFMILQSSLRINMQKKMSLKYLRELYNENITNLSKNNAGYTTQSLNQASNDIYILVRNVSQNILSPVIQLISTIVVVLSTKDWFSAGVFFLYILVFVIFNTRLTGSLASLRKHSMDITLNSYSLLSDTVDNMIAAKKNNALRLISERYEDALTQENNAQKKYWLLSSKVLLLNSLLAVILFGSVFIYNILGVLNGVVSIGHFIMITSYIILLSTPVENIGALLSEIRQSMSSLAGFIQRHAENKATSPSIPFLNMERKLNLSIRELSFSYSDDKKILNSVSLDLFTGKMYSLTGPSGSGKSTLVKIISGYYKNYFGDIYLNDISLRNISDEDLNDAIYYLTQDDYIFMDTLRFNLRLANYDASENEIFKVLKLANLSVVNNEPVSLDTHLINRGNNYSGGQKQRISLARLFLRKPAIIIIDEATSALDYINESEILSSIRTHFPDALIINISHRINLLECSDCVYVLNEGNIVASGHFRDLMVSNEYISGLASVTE

## [O]=[V]([OH])([OH])[OH] [VO4]
  X-ray crystallography (V-SAD, 3.4 Å, phased anomalous difference maps): two vanadium sites (one per monomer) could easily be located
